According to paper PMC9572546, “Discovery of Novel c-Jun N-Terminal Kinase 1 Inhibitors from Natural Products: Integrating Artificial Intelligence with Structure-Based Virtual Screening and Biological Evaluation” (Molecules, 2022):

Target: T1, c-Jun N-terminal kinase 1 (JNK1) (Homo sapiens, UniProt P45983)
T1 construct: gene MAPK8
Assay: LANCE Ultra TR-FRET kinase assay (PerkinElmer), 10-point two-fold dilution
Format: biochemical

T1 sequence (P45983 whole entry): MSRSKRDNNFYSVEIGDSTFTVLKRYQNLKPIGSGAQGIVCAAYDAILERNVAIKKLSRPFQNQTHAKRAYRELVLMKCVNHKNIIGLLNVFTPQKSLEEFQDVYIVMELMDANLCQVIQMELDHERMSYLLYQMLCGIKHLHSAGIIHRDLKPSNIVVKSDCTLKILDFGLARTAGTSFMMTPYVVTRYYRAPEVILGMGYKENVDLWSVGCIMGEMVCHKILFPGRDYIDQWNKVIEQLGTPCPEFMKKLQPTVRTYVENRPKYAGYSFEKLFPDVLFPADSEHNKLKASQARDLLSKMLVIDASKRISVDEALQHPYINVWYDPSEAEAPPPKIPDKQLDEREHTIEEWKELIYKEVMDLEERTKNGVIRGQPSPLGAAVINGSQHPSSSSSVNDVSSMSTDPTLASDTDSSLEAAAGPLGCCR

`COc1cc(-c2cc(=O)c3c(O)cc(O)cc3o2)cc(OC)c1O` [Tricin] was tested, and the IC50 was 17.7 µM.
